In the supplement of paper PMC11208160:

experiment: recombinant UMI read abundance after kanamycin selection (control-corrected) (log10(CPM+1)); higher = more efficient recombination; extreme values may be limits of the assay; sequences stand for … in AGTGCAGAGAAAATCGGCCAGTTTTCTCTGCCTGCAGTCCGCATGCCGTGGGACCCCTTGGGTTCTAACCTGTTGCCTAGATTTATGCAGCGGACTGCCTTTCTCCCAAAGTGATAAACCGG…AGGTTGGTTTCACT; site = the 11-nt donor
Summary of the method: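 Sequenced counts of recombinant UMIs were turned into CPM, averaged across replicates and scaled with control-derived factors. The reported figure is log10(CPM+1). Those UMIs, each 12 nt long, tagged donor and donor-binding-loop pairs on a plasmid with a promoterless kanamycin gene, screened as a pool in Escherichia coli with IPTG (0.07 mM) plus kanamycin or without selection.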
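Note: IS621 bridge recombinase in Escherichia coli cells against a fixed T5 target plasmid.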

Row | Sequence | recombinant UMI read abundance (log10)
1 | CGATCATCATGGACCGGTTTTCCCGGTAATCCGTATTTGCT (site GGATCATCTGG) | 0
2 | CAAGGACCATGGACCGGTTTTCCCGGTAATCCGTATTTGGG (site CAAGGACCTCC) | 0
3 | AAACACGCATGGACCGGTTTTCCCGGTAATCCGTATTTGGG (site AAACACGCTCC) | 0.227
4 | AGCACAGCATGGACCGGTTTTCCCGGTAATCCGTATTTGGG (site AGCTCAGCTCC) | 0
5 | TACTGACCATGGACCGGTTTTCCCGGTAATCCGTATTTGGG (site TACTGACCTCC) | 0.0283
6 | TGTACGTCATGGACCGGTTTTCCCGGTAATCCGTATTTGTT (site GGTACGTCTAA) | 0.031
7 | AATTATGCATGGACCGGTTTTCCCGGTAATCCGTATTTGGA (site AATTATGCTTC) | 0.373
8 | CAAGGTGCATGGACCGGTTTTCCCGGTAATCCGTATTTGAT (site CTAGGTGCTAT) | 1.67
9 | TGCGAGCCATGGACCGGTTTTCCCGGTAATCCGTATTTGAA (site TGCGAGCCTTT) | 0.00414
10 | GCTGGCGCATGGACCGGTTTTCCCGGTAATCCGTATTTGTA (site GCTGGCGCTTA) | 0.982
11 | CGAGGATCATGGACCGGTTTTCCCGGTAATCCGTATTTGGG (site CGAGGAGCTCC) | 0
12 | ATAGTATCATGGACCGGTTTTCCCGGTAATCCGTATTTGCC (site CTAGTATCTGT) | 0.756
13 | CGGTTCCCATGGACCGGTTTTCCCGGTAATCCGTATTTGTG (site GGGTTCCCTCA) | 0.0355
14 | CAAGGCACATGGACCGGTTTTCCCGGTAATCCGTATTTGGG (site CAAGACACTCC) | 0.00686
15 | CTGCTAACATGGACCGGTTTTCCCGGTAATCCGTATTTGGA (site CTCCTAACTTC) | 0.394
16 | CTCGTAACATGGACCGGTTTTCCCGGTAATCCGTATTTGAC (site CTAGTATCTGT) | 0.0113
17 | GTCCATGCATGGACCGGTTTTCCCGGTAATCCGTATTTGGT (site GTTCATGCTAC) | 0.00783
18 | CGGAATCCATGGACCGGTTTTCCCGGTAATCCGTATTTGTT (site AGAAATCCTAA) | 0
19 | GTTAGAACATGGACCGGTTTTCCCGGTAATCCGTATTTGGT (site GTTAGAACTAC) | 0.908
20 | CGGAATCCATGGACCGGTTTTCCCGGTAATCCGTATTTGTT (site CGGGAACCTAA) | 0.00313
21 | TTCAACTCATGGACCGGTTTTCCCGGTAATCCGTATTTGTC (site TTCAACTCTGA) | 0.222
22 | CCGCACACATGGACCGGTTTTCCCGGTAATCCGTATTTGTA (site CCCCACACTTA) | 0.0105
23 | TTCTACACATGGACCGGTTTTCCCGGTAATCCGTATTTGCT (site GTCTACACTAG) | 0.569
24 | CAAGCCGCATGGACCGGTTTTCCCGGTAATCCGTATTTGCT (site CAAGCTGCTAG) | 0
25 | TAATGAGCATGGACCGGTTTTCCCGGTAATCCGTATTTGGG (site TTATGAGCTCC) | 0.0156

Row | Sequence | recombinant UMI read abundance (log10)
26 | AGGATTACATGGACCGGTTTTCCCGGTAATCCGTATTTGAC (site AGGATTACTGT) | 1.4
27 | CGGGAGTCATGGACCGGTTTTCCCGGTAATCCGTATTTGCC (site CGGGAGTCTTG) | 2.01
28 | CGATCATCATGGACCGGTTTTCCCGGTAATCCGTATTTGCT (site GGATCACCTAG) | 0.00443
29 | GTTACGTCATGGACCGGTTTTCCCGGTAATCCGTATTTGTT (site GCTACGTCTAA) | 0.00335
30 | GAATGGCCATGGACCGGTTTTCCCGGTAATCCGTATTTGCA (site GAGTGGCCTTG) | 0
31 | AACCGTCCATGGACCGGTTTTCCCGGTAATCCGTATTTGAC (site AACCGTCCTTT) | 0.477
32 | CTAATAACATGGACCGGTTTTCCCGGTAATCCGTATTTGAT (site CTAATAACTAT) | 2.54
33 | CGGAATCCATGGACCGGTTTTCCCGGTAATCCGTATTTGTT (site CCGGATCCTAA) | 0
34 | AGGGTCCCATGGACCGGTTTTCCCGGTAATCCGTATTTGTG (site AGGCTCCCTCA) | 0.0118
35 | AGCCGAGCATGGACCGGTTTTCCCGGTAATCCGTATTTGTT (site AGCCTAGCTAA) | 0.00511
36 | TTCTCCGCATGGACCGGTTTTCCCGGTAATCCGTATTTGAA (site TTCTCCGCTTT) | 0.0825
37 | CGATTCCCATGGACCGGTTTTCCCGGTAATCCGTATTTGCT (site CCATTCCCTAG) | 1.03
38 | CGCTAGACATGGACCGGTTTTCCCGGTAATCCGTATTTGAG (site CGGTAGACTCT) | 0.181
39 | GAATACTCATGGACCGGTTTTCCCGGTAATCCGTATTTGAT (site GAATACTCTAT) | 2.8
40 | GCATACTCATGGACCGGTTTTCCCGGTAATCCGTATTTGCA (site TCATACTCTTG) | 2.61
41 | CTTACTACATGGACCGGTTTTCCCGGTAATCCGTATTTGGC (site CTTACTACTGC) | 0.688
42 | GAGCTCACATGGACCGGTTTTCCCGGTAATCCGTATTTGGT (site GAGCTCACTAA) | 0.274
43 | TCCAGTGCATGGACCGGTTTTCCCGGTAATCCGTATTTGCT (site TCCAGTGCTAG) | 0
44 | GGAGTGGCATGGACCGGTTTTCCCGGTAATCCGTATTTGTT (site GGAGTGGCTAG) | 1.76
45 | TAAGGAGCATGGACCGGTTTTCCCGGTAATCCGTATTTGGG (site TAACGAGCTCC) | 0
46 | TCCACGGCATGGACCGGTTTTCCCGGTAATCCGTATTTGCG (site TCCACCGCTCG) | 0.023
47 | AATAGAACATGGACCGGTTTTCCCGGTAATCCGTATTTGAG (site ACTAGAACTCT) | 1.6
48 | CGATCATCATGGACCGGTTTTCCCGGTAATCCGTATTTGCT (site CGCCCATCTAG) | 0.133
49 | AATGTACCATGGACCGGTTTTCCCGGTAATCCGTATTTGCT (site AATGTAACTAG) | 0
50 | TCGGACCCATGGACCGGTTTTCCCGGTAATCCGTATTTGTT (site TCGGACCCTAA) | 0.013

Row | Sequence | recombinant UMI read abundance (log10)
51 | TAGAATACATGGACCGGTTTTCCCGGTAATCCGTATTTGCA (site TAGAATGCTTG) | 0
52 | CCCATATCATGGACCGGTTTTCCCGGTAATCCGTATTTGCC (site CCCATATCTGA) | 0
53 | CACTCATCATGGACCGGTTTTCCCGGTAATCCGTATTTGCC (site CACTCGTCTGG) | 0
54 | CTCTTCACATGGACCGGTTTTCCCGGTAATCCGTATTTGGC (site CTCTTCACTGC) | 2.73
55 | ATCTGCTCATGGACCGGTTTTCCCGGTAATCCGTATTTGGA (site ATCTGCTCTTC) | 1.49
56 | CGATCATCATGGACCGGTTTTCCCGGTAATCCGTATTTGCT (site CCATCATCTAA) | 0
57 | CTCTATACATGGACCGGTTTTCCCGGTAATCCGTATTTGCT (site CTCTAGACTAG) | 0
58 | ACATCTACATGGACCGGTTTTCCCGGTAATCCGTATTTGTG (site ACATCCACTCA) | 0.0072
59 | GTAGTTGCATGGACCGGTTTTCCCGGTAATCCGTATTTGCG (site GTAGTAGCTCG) | 2.05
60 | CGGAATCCATGGACCGGTTTTCCCGGTAATCCGTATTTGTT (site CGGAATCCTTA) | 1.56
61 | CGGAATCCATGGACCGGTTTTCCCGGTAATCCGTATTTGTT (site CGGAAATCTAA) | 0
62 | CAAGTCACATGGACCGGTTTTCCCGGTAATCCGTATTTGTG (site CAAGTCACTCT) | 0.103
63 | GTTAGAACATGGACCGGTTTTCCCGGTAATCCGTATTTGGC (site GTCAGAACTGC) | 0
64 | ATGACGCCATGGACCGGTTTTCCCGGTAATCCGTATTTGGA (site ATGACGCCTTC) | 0.0104
65 | CTTCATACATGGACCGGTTTTCCCGGTAATCCGTATTTGTT (site CTTCATACTAA) | 1.32
66 | AATTATCCATGGACCGGTTTTCCCGGTAATCCGTATTTGGA (site AATTATACTTC) | 0.126
67 | CCCCGTACATGGACCGGTTTTCCCGGTAATCCGTATTTGCT (site CACCGTACTAG) | 0.00449
68 | CGTATGGCATGGACCGGTTTTCCCGGTAATCCGTATTTGCT (site CGTATGGCTAG) | 0.895
69 | TATTGAGCATGGACCGGTTTTCCCGGTAATCCGTATTTGGG (site TATTGAGCTCC) | 0
70 | TTTGTTCCATGGACCGGTTTTCCCGGTAATCCGTATTTGGT (site CTTGTTCCTAC) | 0.00622
71 | AAGGACCCATGGACCGGTTTTCCCGGTAATCCGTATTTGAA (site AAGGACCCTTT) | 1.1
72 | CGTCTATCATGGACCGGTTTTCCCGGTAATCCGTATTTGCC (site CGTCTATCTGG) | 2.64
73 | TGTACCCCATGGACCGGTTTTCCCGGTAATCCGTATTTGTA (site TGTACCCCTTA) | 0.292
74 | GACATACCATGGACCGGTTTTCCCGGTAATCCGTATTTGGT (site GACAAACCTAC) | 0
75 | GACAAACCATGGACCGGTTTTCCCGGTAATCCGTATTTGGT (site GATAAACCTAC) | 0
